Earlier results as cited in US8795652B1, “Methods and compositions to treat myocardial conditions” (Abbott Cardiovascular Systems Inc., priority 2003, dated 2014).

SMILES | O2 solubility at 37° C. [V %] | arterial oxygen saturation (ductus arteriosus; four neonates, infused prior to and during surgery) | side effects (ductus arteriosus; in vivo)
FC(F)(F)C(F)(F)C(F)(F)C(F)(F)CCC(F)(F)C(F)(F)C(F)(F)C(F)(F)F [F-44E, 1,2-bis(perfluorobutyl)ethane] | 50 | – | –
FC1(F)C(F)(F)C(F)(F)C2(F)C(F)(F)C(F)(F)C(F)(F)C(F)(F)C2(F)C1(F)F (stereo not shown) [FDC, Perfluorodecalin] | 45 | – | –
CCCCC[C@H](O)/C=C/[C@H]1[C@H](O)CC(=O)[C@@H]1C/C=C\CCCC(=O)O [PGE2, prostaglandin E2] | – | immediate and persistent rise | No major side effects occurred, except for pyrexia in two infants
